Assay results published in patent US7947270B2, “Removing dental plaque with krill enzymes” (Arcimboldo AB, priority 1992, dated 2011).
Where a SMILES comes first, the peptide text is derived from it.

Assays:
[1] = system: krill-derived multifunctional hydrolase (Prep-8); assay: protease inhibitors against Prep-8 at pH 7.5; format: biochemical, antarctic krill
Experimental: The effectiveness of other protease inhibitors against Prep-8 was tested in a 0.1 M Tris-HCl buffer pH 7.5. Benzoyl-val-gly-arg-p-nitroanilide (“ARG-p-NA”) and succinyl-ala-pro-phe-p-nitroanilide (Phe-pNA) were used as substrates.

[2] = system: krill-derived multifunctional hydrolase (antarctic krill), Prep-3 (eluted at pH 3), SEQ ID NO. 1 (N-terminal sequence); assay: Km determination, krill-derived multifunctional hydrolase Prep-3; format: biochemical; settings: 0.1 M CAPS buffer, 2 mM Ca++, pH 9.5
Experimental: (§1) The krill-derived multifunctional hydrolase was purified by the protocol described above in Example 1C. Three preparations the krill-derived multifunctional hydrolase were prepared. The three preparations differed only in that the krill multifunctional hydrolase was eluted from the trypsin inhibitor gel with buffer at pH 3, pH 8, and pH 11, respectively. These preparations shall be termed “Prep-3,” “Prep-8,” and “Prep-11.” These preparations were dissolved in water to a concentration of 6 mg/ml.
(§2) The SDS bands were electroblotted onto PVDF membranes and sequenced through 25 cycles of Edman degradation. See, Matsudaira, J. Biol. Chem., 262: 10035-10038, 1987. […] Accordingly, it is clear that all three preparations are homogenous, although each is micro-heterogeneous at position 5. The proteolytic activity of each of the three preparations was tested against substrate benzoyl-val-gly-arg-p-nitroaniline. Hydrolysis of this substrate can be monitored at […], reflecting the release of p-nitroaniline. The profile for Prep-3 (shown with filled squares), Prep-8 (shown with open diamonds) and Prep-11 (shown with filled diamonds) are identical.

[3] = system: krill-derived multifunctional hydrolase (antarctic krill), Prep-8 (eluted at pH 8), SEQ ID NO. 1 (N-terminal sequence); assay: Km determination, krill-derived multifunctional hydrolase Prep-8; format: biochemical; settings: 0.1 M CAPS buffer, 2 mM Ca++, pH 9.5
Experimental: as §1, §2

[4] = system: krill-derived multifunctional hydrolase (antarctic krill), Prep-11 (eluted at pH 11), SEQ ID NO. 1 (N-terminal sequence); assay: Km determination, krill-derived multifunctional hydrolase Prep-11; format: biochemical; settings: 0.1 M CAPS buffer, 2 mM Ca++, pH 9.5
Experimental: as §1, §2

HL60 cells = assay: in vitro binding of HL60 cells to endothelial cells; format: cell-based, human
Experimental: Endothelial cells were first passaged onto 96 well plates at a given concentration. The endothelial cells used in the experiment are described in Edgell et al., Proc. Natl. Acad. Sci. USA (1983) 80:3734. The cells were incubated at 37° C. under a DMEM cell culture medium containing 10% fetal calf serum and under a 5% CO2 atmosphere. Then, the medium was removed and replaced with 100 μl of a suspension of 200,000 HL60 cells (a […], available from the European Cell Culture Bank under ECACC Accession No. 85011431) in RPMI medium containing 10% fetal calf serum. The cells were incubated for 30 minutes. After this, the medium was removed and the adherent cells were washed two times with DMEM medium. The relative adherence of the HL60 cells was measured by measuring the difference in optical density at 450 nm between the plates on which the cells were co-incubated and plates having endothelial cells alone.
The effect of TNFα was measured by adding TNFα at 1500 units/ml to the endothelial cells 4 hours before the incubation with HL60 cells. The effect of antibody to E-selectin was measured by adding 25 μg/ml of monoclonal antibody BBAZ (R&D Systems Europe, Oxford, England) to the HL60 cells. The results of the experiments were: […]
The number of HL60 cells was determined by subtracting the cell numbers for control plates having only endothelial cells. […]

[5] = target: krill-derived multifunctional hydrolase (antarctic krill); assay: cell-based or functional assay
Sequence of krill-derived multifunctional hydrolase (antarctic krill) (P86599 1-25): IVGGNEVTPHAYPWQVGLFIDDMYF

[6] = system: krill-derived multifunctional hydrolase; assay: protease inhibitors at pH 9.5 against hydrolase preparations; format: biochemical, antarctic krill
Experimental: The effectiveness of three protease inhibitors was tested at pH 9.5 against the three hydrolase preparations.

[7] = system: mice with P388 murine leukemia; assay: Toxicity on mice with s.c. implanted P388 murine leukemia; format: in vivo; settings: all mice in doxorubicin group except those receiving the lowest dosage
[8] = system: mice with s.c. implanted P388 murine leukemia; assay: toxicity on mice with P388 murine leukemia
[9] = substrate Arg-pNA, inhibitor 10 μM, pH 7.5
[10] = substrate Phe-pNA, inhibitor 10 μM, 0.1 M Tris-HCl pH 7.5
[11] = Prep-11, pH 9.5, inhibitor 1 μM
[12] = substrate Arg-pNA, inhibitor 0.2 μM, pH 7.5
[13] = substrate Phe-pNA, inhibitor 0.2 μM, pH 7.5

Molecule: CC(C)C[C@H](NP(=O)(O)O[C@@H]1O[C@@H](C)[C@H](O)[C@@H](O)[C@H]1O)C(=O)N[C@@H](Cc1c[nH]c2ccccc12)C(=O)O [Phosphoramidon]
- Activity remaining, % [1, 9]: 87%
- Activity remaining, % [1, 10]: 94%

Molecule: C[C@H](NC(=O)CCC(=O)O)C(=O)N[C@@H](C)C(=O)N1CCC[C@H]1C(=O)N[C@@H](Cc1ccccc1)C(=O)Nc1ccc([N+](=O)[O-])cc1 [succinyl-ala-ala-pro-phe-p-nitroanilide] (HELM PEPTIDE1{[O=C(O)CCC(=O)[*:2]].A.A.P.F.[O=[N+]([O-])c1ccc(N[*:1])cc1]}$$$$V2.0)
- Km [2]: 260 ± 50 µM
- Km [3]: 270 ± 50 µM
- Km [4]: 270 ± 40 µM

Molecule: TNFα
- HL60 cell number (HL60 cells; Expt 2: endothelial cells pretreated with TNFα): 43,990
- Absorbance (increase over endothelial cells alone) (HL60 cells; Expt 2: endothelial cells pretreated with TNFα 1500 units/ml 4 hours): 0.444

Molecule: Anti-Thrombin III [listing 1 of 2 here]
- Activity remaining, % of Prep-8 with 0.2 µM inhibitor, substrate Arg-pNA, pH 7.5 (% activity remaining) [5]: 4
- Activity remaining, % of Prep-8 with 0.2 µM inhibitor, substrate Phe-pNA, pH 7.5 (% activity remaining) [5]: 2

Molecule: Bovine pancreatic trypsin inhibitor
- % activity remaining ([6]; Prep-3, pH 9.5, inhibitor 1 μM): 2%
- % activity remaining ([6]; Prep-8, pH 9.5, inhibitor 1 μM): 1%
- % activity remaining [6, 11]: 1%

Molecule: CC(C)C[C@H](NC(=O)[C@@H](NC(=O)N[C@@H](Cc1ccccc1)C(=O)O)[C@@H]1CCN=C(N)N1)C(=O)N[C@H](C=O)Cc1ccccc1 [Chymostatin]
- % activity remaining ([6]; Prep-3, pH 9.5, inhibitor 1 μM): 0%
- % activity remaining ([6]; Prep-8, pH 9.5, inhibitor 1 μM): 0%
- % activity remaining [6, 11]: 0%

Molecule: Anti-Thrombin III [listing 2 of 2 here]
- Activity remaining, % [1, 12]: 4%
- Activity remaining, % [1, 13]: 2%

Molecule: Eglin C fragment (peptide)
- Activity remaining, % of Prep-8 with 8.4 µM inhibitor, substrate Phe-pNA, pH 7.5 (% activity remaining) [5]: 100

Molecule: COc1cccc2c1C(=O)c1c(O)c3c(c(O)c1C2=O)C[C@@](O)(C(=O)CO)C[C@@H]3O[C@H]1C[C@H](N)[C@H](O)[C@H](C)O1 [DOX, doxorubicin]
- weight loss and death of mice [7]: lost weight and died
- Toxic death ([8]; 2.5 mg/kg i.p. daily, 9 consecutive days): 6/6
- death and weight loss (summary) ([8]; all doses): all mice in the doxorubicin group, except for those receiving the lowest dosage, lost weight and died

Molecule: α-proteinase inhibitor
- Activity remaining, % of Prep-8 with 0.2 µM inhibitor, substrate Arg-pNA, pH 7.5 (% activity remaining) [5]: 0
- Activity remaining, % of Prep-8 with 0.2 µM inhibitor, substrate Phe-pNA, pH 7.5 (% activity remaining) [5]: 0

Molecule: CC(C)[C@H](NC(=O)c1ccccc1)C(=O)NCC(=O)N[C@@H](CCCNC(=N)N)C(=O)Nc1ccc([N+](=O)[O-])cc1 [benzoyl-pal-gly-arg-p-nitroanilide] (HELM PEPTIDE1{[O=C(c1ccccc1)[*:2]].V.G.R.[O=[N+]([O-])c1ccc(N[*:1])cc1]}$$$$V2.0)
- Km [2]: 210 ± 8 µM
- Km [3]: 210 ± 8 µM
- Km [4]: 230 ± 13 µM

Molecule: CC(C)C[C@H](NC(=O)N[C@H](C(=O)N[C@@H](CCC(N)=O)C(=O)N[C@@H](C)C=O)[C@@H]1CCNC(=N)N1)C(=O)O [Elastatinal]
- Activity remaining, % [1, 9]: 100%
- Activity remaining, % [1, 10]: 100%

Molecule: α-proteinase inhibitor: protease inhibitor
- Activity remaining, % [1, 12]: 0%
- Activity remaining, % [1, 13]: 0%

B1: α-anti-chymotrypsin (protein, UniProt P01011 24-423, looked up, species assumed)
Alpha-1-antichymotrypsin: HPNSPLDEENLTQENQDRGTHVDLGLASANVDFAFSLYKQLVLKAPDKNVIFSPLSISTALAFLSLGAHNTTLTEILKGLKFNLTETSEAEIHQSFQHLLRTLNQSSDELQLSMGNAMFVKEQLSLLDRFTEDAKRLYGSEAFATDFQDSAAAKKLINDYVKNGTRGKITDLIKDLDSQTMMVLVNYIFFKAKWEMPFDPQDTHQSRFYLSKKKWVMVPMMSLHHLTIPYFRDEELSCTVVELKYTGNASALFILPDQDKMEEVEAMLLPETLKRWRDSLEFREIGELYLPKFSISRDYNLNDILLQLGIEEAFTSKADLSGITGARNLAVSQVVHKAVLDVFEEGTEASAATAVKITLLSALVETRTIVRFNRPFLMIIVPTDTQNIFFMSKVTNPKQA
- Activity remaining, % of Prep-8 with 0.2 µM inhibitor, substrate Arg-pNA, pH 7.5 (% activity remaining) [5]: 7
- Activity remaining, % of Prep-8 with 0.2 µM inhibitor, substrate Phe-pNA, pH 7.5 (% activity remaining) [5]: 1
- Activity remaining, % [1, 12]: 7%
- Activity remaining, % [1, 13]: 1%
